Reference: US4049695A, “3-((3-Trifluoromethyl)phenyl)sulfonyl)-2-propenenitrile” (The Dow Chemical Company, priority 1976, dated 1977)

Experiments:
Test in all cases: in vitro agar Petri dish dilution test
Format in all cases: cell-based
P. chrysogenum = conditions: Penicillium chrysogenum, 100% inhibition, read-out: Minimum Inhibitory Concentration
Text: (§1) The inventive product has antimicrobial activity. In the conventional in vitro agar Petri dish dilution test for determining bactericidal and fungicidal activity, the compound gave 100% inhibition against the indicated organisms at the following concentrations in parts per million, the tabulated values being indicated as minimum inhibitory concentrations (MIC).

A. niger = conditions: Aspergillus niger, 100% inhibition, read-out: Minimum Inhibitory Concentration
Text: as §1

[1] = system: K. pneumoniae M-1 Midland Hospital; conditions: Klebsiella pneumoniae, 100% inhibition, read-out: Minimum Inhibitory Concentration
Text: as §1

T. mentagrophytes = conditions: Trichophyton mentagrophytes, 100% inhibition, read-out: Minimum Inhibitory Concentration
Text: as §1

[2] = system: Pseudomonas Sp. Strain 10; conditions: 100% inhibition, read-out: Minimum Inhibitory Concentration
Text: as §1

[3] = system: Trichoderm Sp. Madison P-42; conditions: 100% inhibition, read-out: Minimum Inhibitory Concentration
Text: as §1

C. ips = conditions: 100% inhibition, read-out: Minimum Inhibitory Concentration
Text: as §1

C. albicans = conditions: Candida albicans, 100% inhibition, read-out: Minimum Inhibitory Concentration
Text: as §1

A. fumigatus = conditions: Aspergillus fumigatus, 100% inhibition, read-out: Minimum Inhibitory Concentration
Text: as §1

C. albicansNIH = conditions: Candida albicans, 100% inhibition, read-out: Minimum Inhibitory Concentration
Text: as §1

S. typhosa = conditions: 100% inhibition, read-out: Minimum Inhibitory Concentration
Text: as §1

S. marcescens NIH = conditions: Serratia marcescens, 100% inhibition, read-out: Minimum Inhibitory Concentration
Text: as §1

S. aureus = conditions: Staphylococcus aureus, 100% inhibition, read-out: Minimum Inhibitory Concentration
Text: as §1

P. pullulans = conditions: 100% inhibition, read-out: Minimum Inhibitory Concentration
Text: as §1

B. subtilis = conditions: Bacillus subtilis, 100% inhibition, read-out: Minimum Inhibitory Concentration
Text: as §1

Torulopsis Species = conditions: 100% inhibition, read-out: Minimum Inhibitory Concentration
Text: as §1

E. coli ATCC 11229 = conditions: Escherichia coli, ATCC11229, 100% inhibition, read-out: Minimum Inhibitory Concentration
Text: as §1

C. pelliculosa = conditions: Hansenula anomala, 100% inhibition, read-out: Minimum Inhibitory Concentration
Text: as §1

Measured: MIC

N#CC=CS(=O)(=O)c1cccc(C(F)(F)F)c1 [3-((3-(Trifluoromethyl)phenyl)sulfonyl)-2-propenenitrile]
100 µg/mL: [2]
10 µg/mL: T. mentagrophytes | C. ips | C. pelliculosa
5 µg/mL: S. typhosa | S. aureus | B. subtilis
50 µg/mL: all other assays above
